Source: ChEMBL document CHEMBL1201862, “PubChem BioAssay data set” (2004)
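Assay format: 96-well plates, 48-hour exposure. GI50 marks 50% less growth.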 The source made the active and inactive calls. Rule as the data show it: active = GI50 up to about 1.1 µM and inactive = higher.

Columns and labels:
Assay in all cases: growth of human tumour cells (NCI), 48 h
SK-MEL-28 = system: SK-MEL-28
EKVX = system: EKVX
A549 = system: A549
IGROV-1 = system: IGROV-1
HL-60 = system: HL-60
MCF7 = system: MCF7
SK-MEL-2 = system: SK-MEL-2
T47D = system: T47D
NCI/ADR-RES = system: NCI/ADR-RES
OVCAR-8 = system: OVCAR-8
K562 = system: K562
LOX IMVI = system: LOX IMVI
BT-549 = system: BT-549
HT-29 = system: HT-29
CAKI-1 = system: CAKI-1
Hs-578T = system: Hs-578T
SF-539 = system: SF-539
RXF 393 = system: RXF 393
SR = system: SR

Structure (SMILES): Cc1cn([C@@H]2O[C@H](CO[Si](C)(C)C(C)(C)C)[C@]3(O[C@H]3C(=O)NN)[C@H]2O[Si](C)(C)C(C)(C)C)c(=O)[nH]c1=O
- GI50 (SK-MEL-28): 10.3 µM (inactive)
- GI50 (EKVX): 8.61 µM (inactive)
- GI50 (A549): 6.03 µM (inactive)
- GI50 (IGROV-1): 6.22 µM (inactive)
- GI50 (HL-60): 3.13 µM (inactive)
- GI50 (MCF7): 4.26 µM (inactive)
- GI50 (SK-MEL-2): 6.37 µM (inactive)
- GI50 (T47D): 2.36 µM (inactive)
- GI50 (NCI/ADR-RES): 15.6 µM (inactive)
- GI50 (OVCAR-8): 6.62 µM (inactive)
- GI50 (K562): 2.75 µM (inactive)
- GI50 (LOX IMVI): 3.33 µM (inactive)
- GI50 (BT-549): 5.38 µM (inactive)
- GI50 (HT-29): 2.9 µM (inactive)
- GI50 (CAKI-1): 11.6 µM (inactive)
- GI50 (Hs-578T): 2.72 µM (inactive)
- GI50 (SF-539): 4.75 µM (inactive)

Structure (SMILES): CC(=O)O[C@@H]1[C@H](C(C)C)[C@@H](OC(C)=O)C/C(C)=C/CC[C@]2(C)O[C@@H]12
- GI50 (SK-MEL-28): > 100 µM (inactive)
- GI50 (EKVX): > 100 µM (inactive)
- GI50 (A549): > 100 µM (inactive)
- GI50 (IGROV-1): > 100 µM (inactive)
- GI50 (HL-60): > 100 µM (inactive)
- GI50 (MCF7): > 100 µM (inactive)
- GI50 (SK-MEL-2): > 100 µM (inactive)
- GI50 (T47D): > 100 µM (inactive)
- GI50 (NCI/ADR-RES): > 100 µM (inactive)
- GI50 (OVCAR-8): > 100 µM (inactive)
- GI50 (K562): > 100 µM (inactive)
- GI50 (LOX IMVI): > 100 µM (inactive)
- GI50 (BT-549): > 100 µM (inactive)
- GI50 (HT-29): > 100 µM (inactive)
- GI50 (CAKI-1): > 100 µM (inactive)
- GI50 (Hs-578T): > 100 µM (inactive)
- GI50 (RXF 393): > 100 µM (inactive)

Structure (SMILES): CC1OC(OC2C(OC3CCC4(C)C(CCC5(C)C4CC=C4C6CC(C)(C)CCC6(C(=O)O)CCC45C)C3(C)CO)OCC(O)C2O)C(O)C(O)C1O (stereo not given)
- GI50 (SK-MEL-28): 6.37 µM (inactive)
- GI50 (EKVX): 20.4 µM (inactive)
- GI50 (A549): 19.1 µM (inactive)
- GI50 (IGROV-1): 15.6 µM (inactive)
- GI50 (MCF7): 0.46 µM (active)
- GI50 (SK-MEL-2): 17.7 µM (inactive)
- GI50 (SR): 3.33 µM (inactive)
- GI50 (T47D): 22.1 µM (inactive)
- GI50 (NCI/ADR-RES): 20.9 µM (inactive)
- GI50 (OVCAR-8): 20.3 µM (inactive)
- GI50 (K562): 11.6 µM (inactive)
- GI50 (LOX IMVI): 11.1 µM (inactive)
- GI50 (BT-549): 16.7 µM (inactive)
- GI50 (HT-29): 15.5 µM (inactive)
- GI50 (CAKI-1): 18.5 µM (inactive)
- GI50 (Hs-578T): 14.1 µM (inactive)
- GI50 (RXF 393): 2.72 µM (inactive)
- GI50 (SF-539): 15.5 µM (inactive)

Structure (SMILES): CC1(O)CC23CC(O)C4(O)C(CC(O)C4(C)C)C(C)(O)C2CCC1C3O (stereo not given)
- GI50 (SK-MEL-28): > 100 µM (inactive)
- GI50 (EKVX): > 100 µM (inactive)
- GI50 (A549): > 100 µM (inactive)
- GI50 (IGROV-1): > 100 µM (inactive)
- GI50 (HL-60): > 100 µM (inactive)
- GI50 (MCF7): > 100 µM (inactive)
- GI50 (SK-MEL-2): > 100 µM (inactive)
- GI50 (SR): > 100 µM (inactive)
- GI50 (T47D): > 100 µM (inactive)
- GI50 (NCI/ADR-RES): > 100 µM (inactive)
- GI50 (OVCAR-8): > 100 µM (inactive)
- GI50 (K562): > 100 µM (inactive)
- GI50 (LOX IMVI): > 100 µM (inactive)
- GI50 (BT-549): > 100 µM (inactive)
- GI50 (HT-29): > 100 µM (inactive)
- GI50 (CAKI-1): > 100 µM (inactive)
- GI50 (Hs-578T): > 100 µM (inactive)
- GI50 (SF-539): > 100 µM (inactive)

Structure (SMILES): O=C(COc1cc(=O)oc2ccccc12)c1ccccc1
- GI50 (SK-MEL-28): 32.3 µM (inactive)
- GI50 (EKVX): > 100 µM (inactive)
- GI50 (A549): 97.3 µM (inactive)
- GI50 (IGROV-1): 26.9 µM (inactive)
- GI50 (HL-60): > 100 µM (inactive)
- GI50 (MCF7): > 100 µM (inactive)
- GI50 (SK-MEL-2): 30.7 µM (inactive)
- GI50 (SR): > 100 µM (inactive)
- GI50 (T47D): 25.4 µM (inactive)
- GI50 (OVCAR-8): 33 µM (inactive)
- GI50 (K562): > 100 µM (inactive)
- GI50 (LOX IMVI): 41.1 µM (inactive)
- GI50 (BT-549): 24.6 µM (inactive)
- GI50 (HT-29): 22.6 µM (inactive)
- GI50 (CAKI-1): 4.69 µM (inactive)
- GI50 (Hs-578T): 24.9 µM (inactive)
- GI50 (RXF 393): > 10 µM (inactive)
- GI50 (SF-539): 21.5 µM (inactive)

Structure (SMILES): C[C@]12C=CC(=O)C=C1CC[C@@H]1[C@@H]2CC[C@@]2(C)[C@H]1CC[C@]2(O)C(N)=O
- GI50 (SK-MEL-28): > 100 µM (inactive)
- GI50 (EKVX): > 100 µM (inactive)
- GI50 (A549): > 100 µM (inactive)
- GI50 (IGROV-1): > 100 µM (inactive)
- GI50 (HL-60): > 100 µM (inactive)
- GI50 (SK-MEL-2): > 100 µM (inactive)
- GI50 (SR): > 100 µM (inactive)
- GI50 (T47D): > 100 µM (inactive)
- GI50 (NCI/ADR-RES): > 100 µM (inactive)
- GI50 (OVCAR-8): > 100 µM (inactive)
- GI50 (K562): > 100 µM (inactive)
- GI50 (LOX IMVI): > 100 µM (inactive)
- GI50 (BT-549): > 100 µM (inactive)
- GI50 (HT-29): > 100 µM (inactive)
- GI50 (Hs-578T): > 100 µM (inactive)
- GI50 (RXF 393): > 100 µM (inactive)
- GI50 (SF-539): > 100 µM (inactive)

Structure (SMILES): O=C(NC1CCC(=O)N1C(=O)OCc1ccccc1)OCc1ccccc1 (stereo not given)
- GI50 (SK-MEL-28): > 100 µM (inactive)
- GI50 (A549): > 100 µM (inactive)
- GI50 (IGROV-1): > 100 µM (inactive)
- GI50 (MCF7): > 100 µM (inactive)
- GI50 (SK-MEL-2): > 100 µM (inactive)
- GI50 (SR): > 100 µM (inactive)
- GI50 (NCI/ADR-RES): > 100 µM (inactive)
- GI50 (OVCAR-8): > 100 µM (inactive)
- GI50 (K562): > 100 µM (inactive)
- GI50 (BT-549): > 100 µM (inactive)
- GI50 (HT-29): > 100 µM (inactive)
- GI50 (CAKI-1): > 100 µM (inactive)
- GI50 (Hs-578T): > 100 µM (inactive)
- GI50 (RXF 393): > 100 µM (inactive)
- GI50 (SF-539): > 100 µM (inactive)

Structure (SMILES): CNS(=O)(=O)c1ccc2c(c1)/C(=C1/Nc3ccccc3C1=O)C(=O)N2
- GI50 (SK-MEL-28): > 100 µM (inactive)
- GI50 (EKVX): > 100 µM (inactive)
- GI50 (A549): > 100 µM (inactive)
- GI50 (IGROV-1): 18.7 µM (inactive)
- GI50 (HL-60): 14.6 µM (inactive)
- GI50 (SK-MEL-2): > 100 µM (inactive)
- GI50 (T47D): > 100 µM (inactive)
- GI50 (NCI/ADR-RES): 67.8 µM (inactive)
- GI50 (K562): > 100 µM (inactive)
- GI50 (LOX IMVI): > 100 µM (inactive)
- GI50 (BT-549): 66.4 µM (inactive)
- GI50 (HT-29): > 100 µM (inactive)
- GI50 (CAKI-1): > 100 µM (inactive)
- GI50 (Hs-578T): 3.41 µM (inactive)
- GI50 (RXF 393): > 100 µM (inactive)
